Reference: PubChem BioAssay (NCI)
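All cell lines were grown in 96-well plates and treated with compound for 48 hours. GI50: concentration for 50% inhibition of growth. TGI: total growth inhibition.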

Experiments:
Assay in all cases: NCI-60 cell line screen, 48 h
M14 melanoma = tested on: M14 melanoma
SK-MEL-2 melanoma = tested on: SK-MEL-2 melanoma
K-562 leukemia = tested on: K-562 leukemia
MDA-MB-435 = tested on: MDA-MB-435
SF-539 CNS = tested on: SF-539 CNS
HCT-15 colon = tested on: HCT-15 colon
HOP-92 NSCLC = tested on: HOP-92 NSCLC
A549 NSCLC = tested on: A549 NSCLC
NCI-H23 lung = tested on: NCI-H23 lung
MOLT-4 leukemia = tested on: MOLT-4 leukemia
UO-31 renal = tested on: UO-31 renal
HL-60(TB) leukemia = tested on: HL-60(TB) leukemia
U251 CNS = tested on: U251 CNS
ACHN renal = tested on: ACHN renal
OVCAR-8 ovarian = tested on: OVCAR-8 ovarian
A498 renal = tested on: A498 renal
HT29 colon = tested on: HT29 colon
T-47D breast = tested on: T-47D breast
TK-10 renal = tested on: TK-10 renal
SR leukemia = tested on: SR leukemia
NCI/ADR-RES ovarian = tested on: NCI/ADR-RES ovarian
PC-3 prostate = tested on: PC-3 prostate
MALME-3M melanoma = tested on: MALME-3M melanoma
OVCAR-3 ovarian = tested on: OVCAR-3 ovarian
SNB-19 CNS = tested on: SNB-19 CNS
SK-MEL-5 melanoma = tested on: SK-MEL-5 melanoma
COLO 205 colon = tested on: COLO 205 colon
NCI-H522 lung = tested on: NCI-H522 lung
RXF 393 renal = tested on: RXF 393 renal
IGROV1 ovarian = tested on: IGROV1 ovarian
OVCAR-4 ovarian = tested on: OVCAR-4 ovarian
HCC-2998 colon = tested on: HCC-2998 colon
UACC-257 melanoma = tested on: UACC-257 melanoma
SK-MEL-28 melanoma = tested on: SK-MEL-28 melanoma
HOP-62 NSCLC = tested on: HOP-62 NSCLC
MCF7 breast = tested on: MCF7 breast
OVCAR-5 ovarian = tested on: OVCAR-5 ovarian
DU-145 prostate = tested on: DU-145 prostate
SNB-75 CNS = tested on: SNB-75 CNS
LOX IMVI melanoma = tested on: LOX IMVI melanoma
KM12 colon = tested on: KM12 colon
SK-OV-3 ovarian = tested on: SK-OV-3 ovarian
CAKI-1 renal = tested on: CAKI-1 renal
UACC-62 melanoma = tested on: UACC-62 melanoma
SN12C renal = tested on: SN12C renal
MDA-MB-231 breast = tested on: MDA-MB-231 breast
SF-295 CNS = tested on: SF-295 CNS

Q: For `CCCCCCOc1ccc(/C=N/Nc2cc(C)nc3ccc(Cl)cc23)cc1`, which GI50 (M14 melanoma) is on record?
A: Its GI50 is 1710 nM.

Q: What about the TGI (M14 melanoma) of the same compound?
A: The TGI was 3360 nM.

Q: And the GI50 (SK-MEL-2 melanoma)?
A: The GI50 was 1720 nM.

Q: And the TGI (SK-MEL-2 melanoma)?
A: The TGI was 3240 nM.

Q: And the GI50 (K-562 leukemia)?
A: The GI50 was 467 nM.

Q: And the TGI (K-562 leukemia)?
A: The TGI was 2220 nM.

Q: What about the GI50 (MDA-MB-435) of the same compound?
A: The GI50 was 1710 nM.

Q: What about the TGI (MDA-MB-435) of the same compound?
A: Its TGI is 3150 nM.

Q: And the GI50 (SF-539 CNS)?
A: Its GI50 is 1840 nM.

Q: What about the TGI (SF-539 CNS) of the same compound?
A: The TGI was 3260 nM.

Q: What about the GI50 (HCT-15 colon) of the same compound?
A: The GI50 was 1270 nM.

Q: What about the TGI (HCT-15 colon) of the same compound?
A: The TGI was 2550 nM.

Q: And the GI50 (HOP-92 NSCLC)?
A: The GI50 was 1420 nM.

Q: And the TGI (HOP-92 NSCLC)?
A: The TGI was 3070 nM.

Q: What about the GI50 (A549 NSCLC) of the same compound?
A: The GI50 was 1930 nM.

Q: What about the TGI (A549 NSCLC) of the same compound?
A: The TGI was 3730 nM.

Q: What about the GI50 (NCI-H23 lung) of the same compound?
A: Its GI50 is 1880 nM.

Q: What about the TGI (NCI-H23 lung) of the same compound?
A: Its TGI is 3540 nM.

Q: What about the GI50 (MOLT-4 leukemia) of the same compound?
A: Its GI50 is 1850 nM.

Q: And the TGI (MOLT-4 leukemia)?
A: The TGI was 4050 nM.

Q: What about the GI50 (UO-31 renal) of the same compound?
A: Its GI50 is 1500 nM.

Q: And the TGI (UO-31 renal)?
A: The TGI was 2880 nM.

Q: What about the GI50 (HL-60(TB) leukemia) of the same compound?
A: Its GI50 is 1390 nM.

Q: What about the TGI (HL-60(TB) leukemia) of the same compound?
A: Its TGI is 3380 nM.

Q: What about the GI50 (U251 CNS) of the same compound?
A: Its GI50 is 1900 nM.

Q: What about the TGI (U251 CNS) of the same compound?
A: The TGI was 3430 nM.

Q: What about the GI50 (ACHN renal) of the same compound?
A: The GI50 was 1710 nM.

Q: What about the TGI (ACHN renal) of the same compound?
A: Its TGI is 3080 nM.

Q: And the GI50 (OVCAR-8 ovarian)?
A: Its GI50 is 1910 nM.

Q: What about the TGI (OVCAR-8 ovarian) of the same compound?
A: Its TGI is 4210 nM.

Q: And the GI50 (A498 renal)?
A: The GI50 was 1770 nM.

Q: What about the TGI (A498 renal) of the same compound?
A: Its TGI is 3400 nM.

Q: And the GI50 (HT29 colon)?
A: The GI50 was 1590 nM.

Q: And the TGI (HT29 colon)?
A: Its TGI is 3090 nM.

Q: What about the GI50 (T-47D breast) of the same compound?
A: The GI50 was 1980 nM.

Q: And the TGI (T-47D breast)?
A: The TGI was 3970 nM.

Q: What about the GI50 (TK-10 renal) of the same compound?
A: The GI50 was 1890 nM.

Q: And the TGI (TK-10 renal)?
A: The TGI was 3320 nM.

Q: What about the GI50 (SR leukemia) of the same compound?
A: The GI50 was 336 nM.

Q: And the TGI (SR leukemia)?
A: The TGI was 1600 nM.

Q: And the GI50 (NCI/ADR-RES ovarian)?
A: Its GI50 is 1900 nM.

Q: What about the TGI (NCI/ADR-RES ovarian) of the same compound?
A: Its TGI is 3700 nM.

Q: And the GI50 (PC-3 prostate)?
A: Its GI50 is 1570 nM.

Q: What about the TGI (PC-3 prostate) of the same compound?
A: The TGI was 3210 nM.

Q: What about the GI50 (MALME-3M melanoma) of the same compound?
A: The GI50 was 1910 nM.

Q: And the TGI (MALME-3M melanoma)?
A: The TGI was 3440 nM.

Q: And the GI50 (OVCAR-3 ovarian)?
A: Its GI50 is 2050 nM.

Q: What about the TGI (OVCAR-3 ovarian) of the same compound?
A: The TGI was 3740 nM.

Q: And the GI50 (SNB-19 CNS)?
A: Its GI50 is 1880 nM.

Q: And the TGI (SNB-19 CNS)?
A: Its TGI is 3390 nM.

Q: And the GI50 (SK-MEL-5 melanoma)?
A: Its GI50 is 1690 nM.

Q: And the TGI (SK-MEL-5 melanoma)?
A: The TGI was 3060 nM.

Q: What about the GI50 (COLO 205 colon) of the same compound?
A: The GI50 was 1580 nM.

Q: And the TGI (COLO 205 colon)?
A: The TGI was 3040 nM.

Q: What about the GI50 (NCI-H522 lung) of the same compound?
A: The GI50 was 1790 nM.

Q: And the TGI (NCI-H522 lung)?
A: Its TGI is 3510 nM.

Q: What about the GI50 (RXF 393 renal) of the same compound?
A: Its GI50 is 1560 nM.

Q: What about the TGI (RXF 393 renal) of the same compound?
A: The TGI was 2970 nM.

Q: What about the GI50 (IGROV1 ovarian) of the same compound?
A: The GI50 was 1790 nM.

Q: And the TGI (IGROV1 ovarian)?
A: The TGI was 3530 nM.

Q: And the GI50 (OVCAR-4 ovarian)?
A: The GI50 was 1750 nM.

Q: What about the TGI (OVCAR-4 ovarian) of the same compound?
A: The TGI was 3180 nM.

Q: And the GI50 (HCC-2998 colon)?
A: The GI50 was 1930 nM.

Q: What about the TGI (HCC-2998 colon) of the same compound?
A: The TGI was 3450 nM.

Q: What about the GI50 (UACC-257 melanoma) of the same compound?
A: Its GI50 is 1610 nM.

Q: And the TGI (UACC-257 melanoma)?
A: The TGI was 3260 nM.

Q: What about the GI50 (SK-MEL-28 melanoma) of the same compound?
A: The GI50 was 1760 nM.

Q: And the TGI (SK-MEL-28 melanoma)?
A: The TGI was 3180 nM.

Q: And the GI50 (HOP-62 NSCLC)?
A: Its GI50 is 1550 nM.

Q: And the TGI (HOP-62 NSCLC)?
A: The TGI was 3080 nM.

Q: And the GI50 (MCF7 breast)?
A: The GI50 was 1470 nM.

Q: And the TGI (MCF7 breast)?
A: The TGI was 3200 nM.

Q: And the GI50 (OVCAR-5 ovarian)?
A: Its GI50 is 1920 nM.

Q: What about the TGI (OVCAR-5 ovarian) of the same compound?
A: The TGI was 3350 nM.

Q: And the GI50 (DU-145 prostate)?
A: The GI50 was 1860 nM.

Q: What about the TGI (DU-145 prostate) of the same compound?
A: The TGI was 3570 nM.

Q: What about the GI50 (SNB-75 CNS) of the same compound?
A: The GI50 was 1810 nM.

Q: What about the TGI (SNB-75 CNS) of the same compound?
A: The TGI was 3430 nM.

Q: What about the GI50 (LOX IMVI melanoma) of the same compound?
A: Its GI50 is 1260 nM.

Q: And the TGI (LOX IMVI melanoma)?
A: The TGI was 2570 nM.

Q: What about the GI50 (KM12 colon) of the same compound?
A: The GI50 was 1670 nM.

Q: What about the TGI (KM12 colon) of the same compound?
A: Its TGI is 3380 nM.

Q: What about the GI50 (SK-OV-3 ovarian) of the same compound?
A: Its GI50 is 1700 nM.

Q: And the TGI (SK-OV-3 ovarian)?
A: Its TGI is 3110 nM.

Q: And the GI50 (CAKI-1 renal)?
A: The GI50 was 1650 nM.

Q: And the TGI (CAKI-1 renal)?
A: Its TGI is 3060 nM.

Q: And the GI50 (UACC-62 melanoma)?
A: The GI50 was 1780 nM.

Q: And the TGI (UACC-62 melanoma)?
A: Its TGI is 3270 nM.

Q: And the GI50 (SN12C renal)?
A: Its GI50 is 1690 nM.

Q: What about the TGI (SN12C renal) of the same compound?
A: The TGI was 3180 nM.

Q: What about the GI50 (MDA-MB-231 breast) of the same compound?
A: The GI50 was 1670 nM.

Q: And the TGI (MDA-MB-231 breast)?
A: The TGI was 3240 nM.

Q: What about the GI50 (SF-295 CNS) of the same compound?
A: Its GI50 is 1730 nM.

Q: And the TGI (SF-295 CNS)?
A: The TGI was 3240 nM.
